Assay results published in patent US20230346770A1 (priority 2020, published 2023).

Assay: Phase 1 crossover drug-drug interaction study, plasma pharmacokinetics in healthy adults
Details: for median tmax: both periods
[1] = Treatment B (with clarithromycin), Period 1
[2] = Treatment B (with clarithromycin), Period 2

CNCC[C@@](O)(c1cccc2ccccc12)[C@H](c1ccccc1)c1cc2cc(Br)ccc2nc1OC [M2]
AUC72h higher in Period 2 as compared to Period 1 (Treatment A): 41%
AUC240h higher in Period 2 as compared to Period 1 (Treatment A): 46%
Cmax higher in Period 2 as compared to Period 1 (Treatment A): 36%
Cmax (mean) (Treatment A (single dose 100 mg bedaquiline alone), Period 1, n=8): 12.0 ng/mL
Cmax (mean) (Treatment A (single dose 100 mg bedaquiline alone), Period 2, n=8): 16.3 ng/mL
AUC72 h (mean) (Treatment A, Period 1): 637 ng·h/mL
AUC240 h (mean) (Treatment A, Period 1): 1839 ng·h/mL
M/P ratio AUC72 h (M2/bedaquiline, corrected for molecular weight) (Treatment A, Period 1): 0.0481
M/P ratio AUC240 h (M2/bedaquiline, corrected for molecular weight) (Treatment A, Period 1): 0.110
M/P ratio Cmax (M2/bedaquiline, corrected for molecular weight) (Treatment A, Period 1): 0.00936
tmax (median) (Treatment A, Period 1): 12.00 h
AUC72 h (mean) (Treatment A, Period 2): 898 ng·h/mL
AUC240 h (mean) (Treatment A, Period 2): 2691 ng·h/mL
M/P ratio AUC72 h (M2/bedaquiline, corrected for molecular weight) (Treatment A, Period 2): 0.0670
M/P ratio AUC240 h (M2/bedaquiline, corrected for molecular weight) (Treatment A, Period 2): 0.141
M/P ratio Cmax (M2/bedaquiline, corrected for molecular weight) (Treatment A, Period 2): 0.0142
tmax (median) (Treatment A, Period 2): 12.00 h
median tmax (Treatment A): 12.00 h
AUC72h higher in Period 2 as compared to Period 1 (Treatment B): 2.1 fold
AUC240h higher in Period 2 as compared to Period 1 (Treatment B): 2.1 fold
Cmax higher in Period 2 as compared to Period 1 (Treatment B): 2.2 fold
Cmax (mean) (Treatment B (100 mg bedaquiline on Day 5 of clarithromycin 500 mg q12h Days 1-14), Period 1, n=8): 4.66 ng/mL
Cmax (mean) (Treatment B (100 mg bedaquiline on Day 5 of clarithromycin 500 mg q12h Days 1-14), Period 2, n=8): 9.89 ng/mL
AUC72 h (mean) [1]: 260 ng·h/mL
AUC240 h (mean) [1]: 886 ng·h/mL
M/P ratio AUC72 h (M2/bedaquiline, corrected for molecular weight) [1]: 0.0183
M/P ratio AUC240 h (M2/bedaquiline, corrected for molecular weight) [1]: 0.0460
M/P ratio Cmax (M2/bedaquiline, corrected for molecular weight) [1]: 0.0039
tmax (median) [1]: 35.92 h
AUC72 h (mean) [2]: 543 ng·h/mL
AUC240 h (mean) [2]: 1884 ng·h/mL
M/P ratio AUC72 h (M2/bedaquiline, corrected for molecular weight) [2]: 0.0347
M/P ratio AUC240 h (M2/bedaquiline, corrected for molecular weight) [2]: 0.0881
M/P ratio Cmax (M2/bedaquiline, corrected for molecular weight) [2]: 0.00798
tmax (median) [2]: 23.90 h
median tmax (Treatment B (with clarithromycin)): 23.91 h
reduction of AUC72h with clarithromycin co-administration (Treatment B vs Treatment A): 51%
reduction of AUC240h with clarithromycin co-administration (Treatment B vs Treatment A): 42%
reduction of Cmax with clarithromycin co-administration (Treatment B vs Treatment A): 52%
reduction of M/P ratio AUC72h with clarithromycin co-administration (Treatment B vs Treatment A): 56%
reduction of M/P ratio AUC240h with clarithromycin co-administration (Treatment B vs Treatment A): 49%
reduction of M/P ratio Cmax with clarithromycin co-administration (Treatment B vs Treatment A): 52%
time of maximum mean plasma concentration (both treatment groups): 12 hours post-dose
plasma concentration quantifiable until (both treatments): 240 hours post-dose
pre-dose plasma concentration in Period 2 relative to Cmax after the Period 2 single dose (prior to the Period 2 single dose of bedaquiline (carry-over)): > 10%
